{"source": "patent US20030236458A1", "about": "“Spectroscopic systems and methods for detecting tissue properties” (BIOPHYSICA LLC, priority 1999, published 2003)", "key": {"[1]": {"tested_on": "low grade human CNS tumor", "assay": "Optical imaging of dye perfusion in a low grade human CNS tumor (Example 3)", "assay_type": "in vivo", "procedure": "This example illustrates the use of a contrast enhancing agent, indocyanine green, to identify and spatially localize a low grade human CNS tumor. An MRI scan was conducted before the operation. Additionally, the patient was investigated for tumor tissue using the apparatus described according to the invention and specifically described above.\nThe area of interest was evenly illuminated by a fiber optic light source with the radiation passing through a beam splitter, controlled by a D.C. regulated power supply (Lambda, Inc.) and passed through a 695 nm long pass filter. Images were acquired with a CCD camera (COHU 6500) fitted to the operating microscope with a specially modified cineadaptor. The cortex was stabilized with a glass footplate. Images were acquired at 30 Hz and digitized at 8 bits (512×480 pixels, using an Imaging Technology, Inc. Series 151 system, Woburn, Mass.). Geometrical transformations were applied to images to compensate for small amounts of patient motion (Wohlberg, Digital Imaging Warping, IEEE Computer Society: Los Alamitos, Calif., 1988). […] Raw data (i.e., no digital enhancement) were used for determining the average optical change in specified regions (average size site was 30×30 pixels or 150-250 um^2). For pseudocolor images, a linear low pass filter removed high frequency noise and linear histogram transformations were applied. Noise was defined as the standard deviation of fluctuations in sequentially acquired control images as 0.003-0.009.\nAn averaged control image was obtained of the particular cortical surface area of interest. Indocyanine green dye was administered into a peripheral intravenous catheter as a bolus at Time 0. Lettered labels were placed upon the brain by the surgeon overlay the tumor as identified intraoperatively by ultrasound. However, tumors of this type and grade are notoriously difficult to distinguish from normal tissue once the surgical removal of the tumor has begun. Difference images were taken approximately 15 seconds after intravenous injection of dye (indocyanine green at 1 mg/kg), and 30 seconds after dye administration. […] Therefore, it is possible to image even low grade tumors with this apparatus. Furthermore, it is possible to distinguish, intraoperatively, low grade tumor tissue from surrounding normal tissue."}, "[2]": {"tested_on": "malignant CNS tumor (glioblastoma; astrocytoma, Grade IV)", "assay": "Optical imaging of dye perfusion in a highly malignant CNS tumor (Example 4)", "assay_type": "in vivo, human", "description": "This example illustrates the image of a highly malignant CNS tumor (glioblastoma). A patient was imaged in a neurosurgical procedure as described in Example 1. A series of images were taken from the cortex of a patient with a malignant CNS tumor (glioblastoma; astrocytoma, Grade IV). […] A difference image was obtained at 15 seconds after intravenous injection of indocyanine green, showing the dynamics of dye perfusion in the first seconds in malignant tissue are […] to those in the first few seconds of benign tumor tissue. […] Therefore, it is possible with this device to identify malignant tumor tissue, distinguish intraoperatively between normal and malignant tumor tissue, and to distinguish between the various grades of tumor (e.g., normal vs. benign vs. malignant). Thus, it is possible to not only image the location of tumor tissue, but also to grade the tumor with more malignant tumors retaining dye for a longer period of time than a lower grade tumor."}, "glioma [3]": {"tested_on": "glioma", "set-up": "species or system rat", "conditions": "in vivo", "description": "This example illustrates a series of experiments using a rat glioma model intraoperatively to investigate whether the inventive method and inventive device could function in an operating room setting to provide real time information to the surgeon regarding resection of all tumor tissue. The rat glioma model is a standard predictive model and was used to delineate dye uptake, clearance and overall parameters of optical imaging that result in the best images. The advantages of this model are the ability to consistently get reproducible tumors for imaging studies and to be able to rescect tumor under an operating microscope and still find residual tumor with the inventive optical imaging. A disadvantage of this model is the more sarcoma-like appearance of the tumor and a lesser degree of vascularity compared to human gliomas.\nBriefly, the rat glioma model uses an ethylnitrosourea-induced F-344 rat tumor line developed from a clonal population of a spinal malignant astrocytoma. […] The glioma cells were maintained in Weymouth's medium supplemented with 10% fetal calf serum. Viable cells (5×10^4) were trypsinized from a monolayer culture and implanted stereotaxically into the right cerebral hemisphere of 30 syngeneic female rats, each weighing 140-160 g. The stereotaxic coordinates for right frontal lobe implantation were 4.5 mm anterior to the frontal zero plane, 3 mm right from the midline and 6 mm deep. The rats were anesthetized for implantation. The heads were shaved and scalps opened, and a 1 mm burr hole made at the appropriate coordinates. The cells were injected through a 27 gauge needle, the needle left in place for 30 sec post injection and the hole was covered with bone wax: The scalp was sutured and the animals observed for 3-4 hrs until they returned to normal activity and feeding. The animals were used !I 0-14 days after tumor implantation. In this model, animals begin to show clinical symptoms from the tumor by 16-19 days, such as decreased activity and feeding, hemiparesis and eventually succumb between 19-27 days from mass effects due to tumor expansion.\nFourteen animals underwent complete study, including imaging before and after resection of the tumor. For study, the animals were anesthetized with 2% isoflurane, and the femoral vein canulated for administration of the dye. Anesthesia was maintained with a chloralsoe (50 mg/kg administered ip) and urethane (160 mg/kg administered ip). The animals were placed in a stereotaxic holder. Imaging studies were then carried out before or after removal of the cranium. The tumor typically occupied the anterior one half to two thirds of the right hemisphere exposure. […]"}, "glioma [4]": {"tested_on": "glioma", "conditions": "rat, in vivo", "description": "This example illustrates a series of experiments using a rat glioma model and optical detection techniques through an intact skull to investigate whether the inventive method and inventive device could function in to image tumor tissue through an intact skull and through intact skin prior to or after surgery. Far red wavelengths of emr are known to penetrate through bone and skin. Imaging of tumor tissue was attempted through the intact skull of the rat. The extent of tumor identified was not as accurate as with the cortex exposed, however, the area lying beneath the skull with tumor tissue was easily identified, localized and continued to concentrate dye after several minutes.\nAn image was taken for a grey-scale image of the cranial surface of a rat. The sagital suture runs down the center of the image. Tumor cells had been injected into the left side some days earlier so that this animal had developed a glioma on the left hemisphere of its brain. The right hemisphere was normal. A site 1 laid over the suspect region of brain tumor, and a site 2 laid over normal tissue. A difference image was acquired at 1 second after indocyanine green dye had been intravenously injected into the animal. The region containing tumor tissue becomes immediately visible through the intact cranium. […] A concentration of dye in the center of this difference image was observed and depicted dye circulating in the sagital sinus.\nThe optical changes were determined by the average optical change in a site placed directly over the tumor and over the normal hemisphere. The increase in absorption is a function of the concentration of dye in the tissue at a particular time. The graph labeled “extracranial tumor” is a plot of the dynamics of the absorption changes from the tumor area. The graph labeled “extracranial: normal” is a plot of the dynamics of the absorption change from the non-tumor area."}, "hippocampal tissue slice": {"tested_on": "hippocampal tissue slice", "assay": "Stimulation-evoked after discharge and intrinsic optical signals in hippocampal slices (Example 10)", "assay_type": "cell-based, rat", "procedure": "Sprague-Dawley rats (male and female; 25 to 35 days old) were prepared as described in Aghajanian, A. K. and Rasmussen, K., Synapse 31:331, 1989; and Buckmaster, P. S., Strowbridge, B. W., Schwartzdroin, P. A., J. Neurophysiol. 70:1281, 1993. In most hippocampal slice experiments, simultaneous extracellular field electrode recordings were obtained from CA1 and CA3 areas. For stimulation-evoked after discharge (13 slices, 8 animals), the concentration of Mg^2+ in the bathing medium was reduced to 0.9 mM. A bipolar tungsten stimulating electrode was placed on the Schaffer collaterals to evoke synaptically driven field responses in CA1; stimuli consisted to 100 to 300-μs-duration pulses at an intensity of four times population-spike threshold. After discharges were evoked by a 2-[…] of such stimuli delivered at 60 Hz. […] In all treatments, perfusion with furosemide-containing medium was begun after a consistent level of bursting had been established.\nFor imaging of intrinsic optical signals, the tissue was illuminated with a beam of white light (tungsten filament light and lens system; Dedotec USA, Lodi, N.J.) directed through the microscope condenser. The light was controlled and regulated (power supply: Lambda Electronics, Melville, N.Y.) to minimize fluctuations and filtered (695 nm long-pass) so that the slice was transilluminated with long wavelengths (red). Image frames were acquired with a charge-coupled device camera (Dage-MTI) at 30 Hz and were digitized at 8 bits with a spatial resolution of 512 by 480 pixels by means of an Imaging Technology Series 151 imaging system; gains and offsets of the camera-control site and the analog-to-digital board were adjusted to optimize the sensitivity of the system. Imaging hardware was controlled by a 486-PC-compatible computer running software written by D. Hochman and developed with commercially available software tools (Microsoft's C/C++ Compiler and Imaging Technology's ITEX library). To increase signal-to-noise ratio, an averaged image was composed from 16 individual image-frames, integrated over 0.5 s and averaged together. An experimental series typically involved the continuous acquisition of a series of averaged images over a several minute time period; at least 10 of these averaged images were acquired as control images before stimulation. Pseudocolored images were calculated by subtracting the first control image from subsequently acquired images and assigned a color lookup table to the pixel values. For these images, usually a linear low-pass filter was used to remove high-frequency noise and a linear-histogram stretch was used to map the pixel values over the dynamic range of the system. All operations on these images were linear so that quantitative information was preserved."}, "hippocampal slice": {"tested_on": "hippocampal slice", "assay": "Spontaneous interictal-like bursts in hippocampal slices with modified bathing medium", "assay_type": "cell-based, rat"}, "[5]": {"conditions": "2.5 mM in medium, 20 minutes of perfusion, stimulation at 60 Hz"}}, "data": [{"compound": "CC1(C)C(/C=C/C=C/C=C/C=C2\\N(CCCCS(=O)(=O)O)c3ccc4ccccc4c3C2(C)C)=[N+](CCCCS(=O)(=O)[O-])c2ccc3ccccc3c21", "note": "[indocyanine green]", "values": [{"measurement": "tissue staining in difference images, tumor tissue", "setting": "[1]; 1 mg/kg intravenous bolus, approximately 15 and 30 seconds after dye administration", "result": "first tissue staining"}, {"measurement": "time at which all tissue (both normal and abnormal) showed staining", "setting": "[1]; 1 mg/kg intravenous, low grade tumor", "result": 45, "unit": "s"}, {"measurement": "clearance of dye from the area of interest", "setting": "[1]; five minutes after dye administration, low grade tumor", "result": "complete clearance"}, {"measurement": "entry into low grade tumor tissue compared to normal brain tissue", "setting": "[1]; intravenous", "result": "faster than normal brain tissue"}, {"measurement": "intensity in malignant tissue compared to normal tissue", "setting": "[2]; 30 seconds after intravenous injection", "result": "even more intense"}, {"measurement": "retention of dye in malignant tumor tissue compared to benign tumor tissue", "setting": "[2]; 1 minute and 10 minutes after dye injection", "result": "retained significantly longer"}, {"measurement": "duration of prolonged increase in the optical signal in the tumor", "setting": "glioma [3]; female, F-344, rat", "result": "> 2", "unit": "min"}, {"measurement": "time after dye injection at which optical signals began to change", "setting": "glioma [3]; female, F-344, rat", "result": "2 to 3", "unit": "s"}, {"measurement": "dye in tumor tissue versus normal tissue", "setting": "glioma [3]; rat", "result": "still collecting in tumor tissue"}, {"measurement": "dye in the cerebrospinal fluid after administration", "setting": "glioma [3]; rat, iv", "result": "No dye was found"}, {"measurement": "plateau phase optical change, normal brain", "setting": "glioma [4]; 60 seconds", "result": "3.1±0.7", "unit": "%"}, {"measurement": "plateau phase optical change, tumor tissue", "setting": "glioma [4]; 60 seconds", "result": "40.5±9.6", "unit": "%"}, {"measurement": "peak optical change, normal brain imaged through the cranium", "setting": "glioma [4]; iv", "result": "7.8±2.3", "unit": "%"}, {"measurement": "peak optical change, tumor imaged through the cranium", "setting": "glioma [4]; iv", "result": "13.1±3.9", "unit": "%"}]}, {"compound": "NS(=O)(=O)c1cc(C(=O)O)c(NCc2ccco2)cc1Cl", "note": "[furosemide]", "values": [{"measurement": "field response to the test pulse", "setting": "hippocampal tissue slice; 2.5 mM in medium, 20 minutes of perfusion", "result": "hyperexcitable field response (multiple population spikes)"}, {"measurement": "electrical after discharge (epileptiform) activity", "setting": "hippocampal tissue slice; [5]", "result": "blocks"}, {"measurement": "stimulation-evoked optical changes (intrinsic optical signal)", "setting": "hippocampal tissue slice; [5]", "result": "blocks"}, {"measurement": "response after washout", "setting": "hippocampal tissue slice; 45 minutes of perfusion with normal bathing medium", "result": "restoration of the initial response pattern"}]}, {"compound": "CN1CCc2cc3c(cc2[C@H]1[C@@H]1OC(=O)c2c1ccc1c2OCO1)OCO3", "note": "[bicuculine]", "values": [{"measurement": "spontaneous interictal-like bursts, average", "setting": "hippocampal slice; 50 to 100 in bathing medium, 4 slices, 3 animals", "result": 14, "unit": "bursts/min"}]}, {"compound": "Nc1ccncc1", "note": "[4-AP]", "values": [{"measurement": "spontaneous interictal-like bursts, average", "setting": "hippocampal slice; 200 to 300 μM in bathing medium, 4 slices, 2 animals", "result": 33, "unit": "bursts/min"}]}, {"compound": "[K+]", "note": "[K^+]", "values": [{"measurement": "spontaneous interictal-like bursts, average", "setting": "hippocampal slice; 10 mM in bathing medium, 6 slices, 4 animals", "result": 81, "unit": "bursts/min"}]}]}
